Results taken from patent US12006314B2, “Anti-cancer nuclear hormone receptor-targeting compounds” (Nuvation Bio Inc., priority 2021, dated 2024).

What was measured:
[1] = test system: MDAMB361 cells; assay: Cell viability assay MDAMB361; type: cell-based; conditions: Homo sapiens, MDA-MB-361, 144 h; 6 days, CellTiterGlo
Experimental: (§1) Cell viability assay: LNCap, 22Rv1, MCF7, MDAMB361, T47D, and IEC6 cells were seeded at a density of 500-2000 cells/well in 96 well plates, and a ‘T0’ (timepoint 0) was included along with the assay plate. The plates were then incubated at 37° C., 5% CO2 in a cell culture incubator overnight. On the next day, the ‘T0’ plate was assayed using CellTiterGlo (Promega, Inc) according to the manufacturer's instructions. The appropriate compounds were diluted in DMSO and added to the assay plate (final DMSO concentration of 0.1-0.2%) on the next day. The assay plates were incubated for 6 days at 37° C., 5% CO2. After the incubation period, the plates were assayed using CellTiterGlo (Promega, Inc) according to the manufacturer's instructions and luminescence was read on the EnVision plate reader. Inhibition of the tested compounds was determined by the following formula: Inhibition rate (%)=(1−(RLU compound−RLU day0)/(RLU control−RLU day0))*100%. GraphPadPrism was used to analyze the data and determine GI50/IC50 values.

[2] = biological target: T1, ER (SK-BR-3 cells transfected with ERE plasmid and ER) (Homo sapiens, UniProt P03372); assay: ER antagonism assay; type: cell-based; conditions: 100 nM β-Estradiol, 24 h, Dual-glo luciferase
T1 construct: expressed in transfected cells; host or cells: SK-BR-3 (transient, lipofectamine 3000)
T1 sequence (P03372 1-595): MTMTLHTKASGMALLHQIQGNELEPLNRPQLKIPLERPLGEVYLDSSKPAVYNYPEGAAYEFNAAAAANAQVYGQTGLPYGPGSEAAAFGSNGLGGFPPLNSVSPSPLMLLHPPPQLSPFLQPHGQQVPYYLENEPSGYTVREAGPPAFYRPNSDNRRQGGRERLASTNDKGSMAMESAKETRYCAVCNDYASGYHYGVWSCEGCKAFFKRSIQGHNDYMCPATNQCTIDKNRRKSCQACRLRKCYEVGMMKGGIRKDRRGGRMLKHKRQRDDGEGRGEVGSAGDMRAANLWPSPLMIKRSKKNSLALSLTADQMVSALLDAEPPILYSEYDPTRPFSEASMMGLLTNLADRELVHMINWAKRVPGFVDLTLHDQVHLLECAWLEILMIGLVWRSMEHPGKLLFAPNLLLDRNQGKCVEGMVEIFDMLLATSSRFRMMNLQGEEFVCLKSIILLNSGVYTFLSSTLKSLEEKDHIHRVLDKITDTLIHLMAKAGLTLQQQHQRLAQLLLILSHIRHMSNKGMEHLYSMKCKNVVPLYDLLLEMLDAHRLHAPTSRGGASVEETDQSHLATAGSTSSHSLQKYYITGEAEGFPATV
Experimental: ER antagonism assay: To evaluate ER antagonist activity, SK-BR-3 cells were seeded at a density of 30000 cells/well in the assay plate. The assay plate was then incubated at 37° C., 5% CO2 for 24 h. A mixture of ERE plasmid and ER in opti-MEM media was incubated with lipofectamine 3000 in Opti-MEM media and incubated at room temperature for 15 minutes. 10 μL of this transfection mix was added to each well of the assay plate and the assay plate was incubated at 37° C., 5% CO2 for 24 h. 100 nM β-Estradiol in 10 μL medium or 10 μL medium (control wells) was added to corresponding wells of assay plate and incubated at 37° C. 5% CO2 for 24 h. After the incubation period, 50 μL of Dual-glo luciferase reagent was added to the assay plate and mixed at room temperature for 20 mins on an orbital shaker, before reading out on the EnVision plate reader. 50 μL of Stop & Glo reagent was added to assay plate, mixed at room temperature for 20 minutes, and read on the Envision plate reader.

[3] = test system: IEC6 cells; assay: Cell viability assay IEC6; type: cell-based; conditions: Rattus norvegicus, IEC-6, 144 h; 6 days, CellTiterGlo
Experimental: as §1

[4] = test system: MCF7 cells; assay: Cell viability assay MCF7; type: cell-based; conditions: Homo sapiens, MCF7, 144 h; 6 days, CellTiterGlo
Experimental: as §1

[5] = biological target: T2, ER Alpha-ligand binding domain (LBD) (Homo sapiens, UniProt P03372); assay: ER binding assay (LanthaScreen TR-FRET ER Alpha Competitive Binding); conditions: Fluormone ES2 Green tracer 3 nM, 2 h
T2 sequence (P03372 311-547 limits assumed): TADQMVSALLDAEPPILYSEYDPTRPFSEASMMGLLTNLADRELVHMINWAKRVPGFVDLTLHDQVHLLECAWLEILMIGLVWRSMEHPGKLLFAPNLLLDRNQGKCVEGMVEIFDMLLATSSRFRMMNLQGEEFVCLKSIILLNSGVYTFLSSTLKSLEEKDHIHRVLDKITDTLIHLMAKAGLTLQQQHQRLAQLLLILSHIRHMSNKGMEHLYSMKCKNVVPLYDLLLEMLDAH
Experimental: ER binding assay: ERα binding was assessed using the LanthaScreen® TR-FRET ER Alpha Competitive Binding kit from ThermoFisherScientific. In this assay, a terbium-labeled anti-GST antibody was used to indirectly label GST-tagged ER Alpha-ligand binding domain (LBD) by binding to its GST tag. Competitive binding to the ER Alpha-LBD (GST) was detected by a test compound's ability to displace a fluorescent ligand (Fluormone™ ES2 Green tracer) from the ER Alpha-LBD (GST), which results in a loss of FRET signal between the Tb-anti-GST antibody and the tracer. To assess ER binding, test compound (top dose 10 μM, 4 fold serial dilution, 8 point dose response) and controls (e.g. estradiol) were transferred to the assay plate. The Fluormone™ ES2 Green tracer (3 nM final concentration with assay buffer) was added to the assay plate. This was followed by addition of a mixture of the ER Alpha-LBD (GST) and terbium anti-GST antibody. After a 2 h incubation period at room temperature, the plate was read on the Envision plate reader and the TR-FRET ratio of 520:495 emissions were calculated and used to determine the IC50 from a dose response curve of the compound.

Row | Structure (SMILES) | GI50 [1] | IC50 [2] | IC50 [3] | GI50 [4] | IC50 [5]
1 | CCc1cc2ncc(CN3CCN(CCCCCCOc4cc(F)c([C@@H]5c6[nH]c7ccccc7c6C[C@@H](C)N5CC(C)(C)F)c(F)c4)CC3)cc2[nH]c1=O [Compound 72, 7-((4-(6-(3,5-Difluoro-4-((1R,3R)-2-(2-fluoro-2-methylpropyl)-3-methyl-2,3,4,9-tetrahydro-1H-1-pyrido[3,4-b]indol-1-yl)phenoxy)hexyl)piperazin-1-yl)methyl)-3-ethyl-1,5-naphthyridin-2(1H)-one] | ≤ 0.5 µM | ≤ 0.1 µM | 5 to 30 µM | ≤ 0.5 µM | –
2 | CCc1cc2ncc(CN3CCN(C(=O)CCCCCOc4cc(F)c([C@@H]5c6[nH]c7ccccc7c6C[C@@H](C)N5CC(C)(C)F)c(F)c4)CC3)cc2[nH]c1=O [Compound 61, 7-((4-(6-(3,5-Difluoro-4-((1R,3R)-2-(2-fluoro-2-methylpropyl)-3-methyl-2,3,4,9-tetrahydro-1H-pyrido[3,4-b]indol-1-yl)phenoxy)hexanoyl)piperazin-1-yl)methyl)-3-ethyl-1,5-naphthyridin-2(1H)-one] | > 30 µM | ≤ 0.1 µM | > 30 µM | ≤ 0.5 µM | ≤ 0.1 µM
3 | CCc1cc2ncc(CN3CCN(C(=O)[C@H]4CC[C@H](COc5cc(F)c([C@@H]6c7[nH]c8ccccc8c7C[C@@H](C)N6CC(C)(C)F)c(F)c5)CC4)CC3)cc2[nH]c1=O [Compound 70, 7-((4-((1r,4r)-4-((3,5-Difluoro-4-((1R,3R)-2-(2-fluoro-2-methylpropyl)-3-methyl-2,3,4,9-tetrahydro-1H-pyrido[3,4-b]indol-1-yl)phenoxy)methyl)cyclohexane-1-carbonyl)piperazin-1-yl)methyl)-3-ethyl-1,5-naphthyridin-2(1H)-one] | ≤ 0.5 µM | ≤ 0.1 µM | > 30 µM | 5 to 30 µM | –
4 | CCc1cc2ncc(CN3CCC(N(C)C(=O)COc4cc(F)c([C@@H]5c6[nH]c7ccccc7c6C[C@@H](C)N5CC(C)(C)F)c(F)c4)CC3)cc2[nH]c1=O [Compound 74, 2-(3,5-Difluoro-4-((1R,3R)-2-(2-fluoro-2-methylpropyl)-3-methyl-2,3,4,9-tetrahydro-1H-pyrido[3,4-b]indol-1-yl)phenoxy)-N-(1-((7-ethyl-6-oxo-5,6-dihydro-1,5-naphthyridin-3-yl)methyl)piperidin-4-yl)-N-methylacetamide] | ≤ 0.5 µM | ≤ 0.1 µM | 0.5 to 5 µM | ≤ 0.5 µM | –
5 | CCc1cc2ncc(CN3CCN(C(=O)COc4cc(F)c([C@@H]5c6[nH]c7ccccc7c6C[C@@H](C)N5CC(C)(C)F)c(F)c4)CC3)cc2[nH]c1=O [Compound 73, 7-((4-(2-(3,5-Difluoro-4-((1R,3R)-2-(2-fluoro-2-methylpropyl)-3-methyl-2,3,4,9-tetrahydro-1H-pyrido[3,4-b]indol-1-yl)phenoxy)acetyl)piperazin-1-yl)methyl)-3-ethyl-1,5-naphthyridin-2(1H)-one] | ≤ 0.5 µM | ≤ 0.1 µM | > 30 µM | ≤ 0.5 µM | –
